Data on four sequences can be found in patent publication US6962706B1, “Synthetic peptides containing protective epitopes for the treatment and prevention of periodontitis associated with porphyromonas gingivalis” (The University of Melbourne, priority 1999, dated 2005).

For the assay, the system named is serum IgG antibody (protective mouse sera, patient sera D20, D24, H10). The assay can be described thus: Epitope mapping ELISA of PIN-bound PrtR27 overlapping peptides with human and mouse antisera. In kind it is binding. The following applies: PIN-bound overlapping 13 mer peptides, antisera diluted 1:1000, O.D. 450 nm. An excerpt:
FIG. 6: Serum IgG antibody responses assessed by ELISA to Porphyromonas gingivalis PrtR-27 overlapping peptides (SEQ ID NOs:13-24, 33, and 25-32, respectively, from origin). Twenty one PIN-bound peptides were probed with normal mouse sera (▪), protective mouse sera (□), normal human serum (▪), patient D24 sera (▪), patient H10 sera (▪) and patient D20 sera (▪). ELISAs were developed as per Example 1.
Twenty overlapping 13 mer peptides (overlay by 6 and offset by 7 residues) corresponding to the N-terminal 148 residues of the PrtR27 were synthesised by Chiron Technologies (Melbourne, Australia) using the multipin peptide synthesis system. The sequence of the N-terminal 148 residues of the PrtR27 adhesin is as follows: • […] (SEQ ID NO: 12). The overlapping peptides synthesised were: • […] (SEQ ID NO:13) • […] (SEQ ID NO:14) • […] (SEQ ID NO:15) • […] (SEQ ID NO:16) • […] (SEQ ID NO:17) • […] (SEQ ID NO:18) • […] (SEQ ID NO:19) • […] (SEQ ID NO:20) • […] (SEQ ID NO:21) • […] (SEQ ID NO:22) • […] (SEQ ID NO:23) • […] (SEQ ID NO:24) • […] (SEQ ID NO:25) • […] (SEQ ID NO:26) • […] (SEQ ID NO:27) • […] (SEQ ID NO:28) • […] (SEQ ID NO:29) • […] (SEQ ID NO:30) • […] (SEQ ID NO:31) • […] (SEQ ID NO:32).
Epitope mapping of the pin-bound peptides was carried out by ELISA as per Chiron Technologies instructions using the human and mouse proteinase antisera at a dilution of 1:1000 in 1% w/v non-fat skim milk powder in 0.1M phosphate buffered saline, pH 7.4, containing 0.1% v/v Tween 20. The bound antibody was detected by incubating the peptide-PINS with 0.4 mM 3,3′,5,5′-tetramethylbenzidine in 0.1M sodium acetate/citric acid buffer containing 0.004% v/v H2O2. Colour development was stopped by the addition of 2M H2SO4. Optical density (O.D.) was measured at 450 nm using a BioRad microplate reader model 450.
Consider “RYDDFTFEAGKKYTFTMRRAGMGDGTD (listed as Porphyromonas gingivalis) [EP5]”, for which the “Antibody binding of PrtR27 regions in ELISA (FIG. 6)” value (“Antibody binding of PrtR27 regions” for short) is listed as “bind antibody”.

Turning to “TNPEPASGKMWIAGDGGNQP (listed as Porphyromonas gingivalis) [EP4]”, the “Antibody binding of PrtR27 regions” value is given as “bind antibody”. On to “FLLDADHNTFGSVIPATGPLFTGTASS (listed as Porphyromonas gingivalis) [EP1]”, for which the “Antibody binding of PrtR27 regions” value is reported as “bind antibody”. The value for “LYSANFESLIPANADPVVTTQNIIVTG (listed as Porphyromonas gingivalis) [EP2]” was “bind antibody”.
